# Positions of bridges follow the written chain, without caps; N, C: chain ends. Non-standard residues stand in square brackets, D forms with d. Residues, ends and D or L forms follow the SMILES beside them. Cha = N[C@@H](CC1CCCCC1)C(=O)O; NMeNva = CCC[C@H](NC)C(=O)O; NMeAbu = CC[C@H](NC)C(=O)O; NMeC = CN[C@@H](CS)C(=O)O; NMeA = CN[C@@H](C)C(=O)O; Nva = CCC[C@H](N)C(=O)O; Abu = CC[C@H](N)C(=O)O; NPrGly = CCCNCC(=O)O; NEtG = CCNCC(=O)O
# Settings: PAMPA, 10 µM, pH 7.4
# Procedure: Passive permeabilities of the 36 compounds were measured in multiplex as mixtures of six compounds each using the parallel artificial membrane permeability assay (PAMPA).[44]−[46]
# Protocol is identical for both mixture and pure compound analysis.
# Two of the following: Carbamazepine (CBZ), propranolol (Prop), and 1NMe35 were
# included as internal standards and prepared as DMSO stocks at a concentration of 2 000 µM.
# assay was carried out with a 96-well donor plate with 0.45 μ hydrophobic Immobilon-P membrane supports
# (Millipore MAIPNTR10) and a 96-well Teflon acceptor plate (Millipore MSSACCEPTOR).
# protocol then proceeded as follows:
# Donor well solutions were prepared to a volume of 1 000 µL with the analytes as a solution in 1X
# PBS pH 7.4 and 5% DMSO. To a 3 mL Eppendorf tube was added 950 µL of 1X PBS pH 7.4, 40
# The solutions were vortexed and set aside.
# Analyte – 10 µM per compound
# A 1% solution of soy lecithin in dodecane was freshly prepared in a 3 mL Eppendorf tube and
# sonicated (5 min) to ensure full dissolution of the lecithin. The donor membrane plate was turned
# upside down and bottom of the membranes exposed. 5 µL of the 1% soy lecithin solution in
# dodecane was then placed on the bottom of the membrane, allowing the drop to spread across the
# full area of the membrane. Any membranes with visible damage were not used in the assay.
# membranes were allowed to equilibrate for 5 min before loading.
# Each well within the Teflon block acceptor plate that was to be used in the assay was then loaded
# with 300 µL of 1X PBS pH 7.4 and 5% DMSO.
# Working without break, 150 µL of each donor well solution was transferred from the to the 96-well
# donor plate. Each mixture of interest was r un in quadruplicate, using a new well for each replicate.
# As soon as the 96-well donor plate was finished being loaded, it was gently placed into the 96-well
# Teflon acceptor plate, taking care not to trap any air bubbles beneath the membrane.
# The donor/acceptor plates were covered gently with the lid to minimize evaporation and transferred
# gently as a system to a sealed chamber and left to sit overnight at room temperature. The chamber
# was kept from drying by placing a wet paper towel within to prevent evaporation.
# After ~19-20 hours the donor plate was removed from the acceptor plate.
# 50 µL of each well (donor and acceptor) were transferred to a 96 -well plate and diluted with 50 µL
# of methanol prior to heat sealing and quantification by UPLC -MS.
%R_avg [%],Pe_avg [×10⁻⁶ cm/s],SMILES
12.8,,"CCC[C@@H]1NC(=O)[C@H](C)N(C)C(=O)[C@H](CC(C)C)NC(=O)CSC[C@@H](C(=O)OCC)N(C)C(=O)[C@H](CC(C)C)NC(=O)[C@H](C)N(C)C(=O)[C@H](CC(C)C)NC(=O)CN(CC)C(=O)[C@H]2CCCN2C1=O [LA05, O=C(N(C)[C@H](C(OCC)=O)CSCC(N[C@H](C(N(C)[C@@H](C)C(N[C@@H](CCC)C(N1[C@H](CCC1)C(N(CC)CC(N[C@H]2CC(C)C)=O)=O)=O)=O)=O)CC(C)C)=O)[C@H](CC(C)C)NC([C@H](C)N(C)C2=O)=O] ({CH2CO}-L[NMeA][Nva][dP][NEtG]L[NMeA]L[NMeC]-OEt; thioether N-9)"
5.1,,"CCOC(=O)[C@@H]1CSCC(=O)N[C@@H](CC(C)C)C(=O)N(C)[C@@H](C)C(=O)N[C@@H](CC(C)C)C(=O)N2CCC[C@@H]2C(=O)N(CC)CC(=O)N[C@@H](CC(C)C)C(=O)N(C)[C@@H](C)C(=O)N[C@@H](CC(C)C)C(=O)N1C [LA06, O=C(N(C)[C@H](C(OCC)=O)CSCC(N[C@H](C(N(C)[C@@H](C)C(N[C@@H](CC(C)C)C(N1[C@H](CCC1)C(N(CC)CC(N[C@H]2CC(C)C)=O)=O)=O)=O)=O)CC(C)C)=O)[C@H](CC(C)C)NC([C@H](C)N(C)C2=O)=O] ({CH2CO}-L[NMeA]L[dP][NEtG]L[NMeA]L[NMeC]-OEt; thioether N-9)"
13.0,0,"CCOC(=O)[C@@H]1CSCC(=O)N[C@@H](CC(C)C)C(=O)N(C)[C@@H](C)C(=O)N[C@@H](CC(C)C)C(=O)N2CCC[C@@H]2C(=O)N(CC)CC(=O)N[C@@H](CC2CCCCC2)C(=O)N(C)[C@@H](C)C(=O)N[C@@H](CC(C)C)C(=O)N1C [LA10, O=C(N(C)[C@H](C(OCC)=O)CSCC(N[C@H](C(N(C)[C@@H](C)C(N[C@@H](CC(C)C)C(N1[C@H](CCC1)C(N(CC)CC(N[C@H]2CC3CCCCC3)=O)=O)=O)=O)=O)CC(C)C)=O)[C@H](CC(C)C)NC([C@H](C)N(C)C2=O)=O] ({CH2CO}-L[NMeA]L[dP][NEtG][Cha][NMeA]L[NMeC]-OEt; thioether N-9)"
6.5,,"CCC[C@@H]1NC(=O)[C@H](C)N(C)C(=O)[C@H](CC(C)C)NC(=O)CSC[C@@H](C(=O)OCC)N(C)C(=O)[C@H](CC(C)C)NC(=O)[C@H](C)N(C)C(=O)[C@H](CC2CCCCC2)NC(=O)CN(CCC)C(=O)[C@H]2CCCN2C1=O [LA11, O=C(N(C)[C@H](C(OCC)=O)CSCC(N[C@H](C(N(C)[C@@H](C)C(N[C@@H](CCC)C(N1[C@H](CCC1)C(N(CCC)CC(N[C@H]2CC3CCCCC3)=O)=O)=O)=O)=O)CC(C)C)=O)[C@H](CC(C)C)NC([C@H](C)N(C)C2=O)=O] ({CH2CO}-L[NMeA][Nva][dP][NPrGly][Cha][NMeA]L[NMeC]-OEt; thioether N-9)"
9.2,0,"CCCN1CC(=O)N[C@@H](CC2CCCCC2)C(=O)N(C)[C@@H](C)C(=O)N[C@@H](CC(C)C)C(=O)N(C)[C@H](C(=O)OCC)CSCC(=O)N[C@@H](CC(C)C)C(=O)N(C)[C@@H](C)C(=O)N[C@@H](CC(C)C)C(=O)N2CCC[C@@H]2C1=O [LA12, O=C(N(C)[C@H](C(OCC)=O)CSCC(N[C@H](C(N(C)[C@@H](C)C(N[C@@H](CC(C)C)C(N1[C@H](CCC1)C(N(CCC)CC(N[C@H]2CC3CCCCC3)=O)=O)=O)=O)=O)CC(C)C)=O)[C@H](CC(C)C)NC([C@H](C)N(C)C2=O)=O] ({CH2CO}-L[NMeA]L[dP][NPrGly][Cha][NMeA]L[NMeC]-OEt; thioether N-9)"
62.4,,"CCC[C@@H]1NC(=O)CN(CC)C(=O)[C@H](CC(C)C)NC(=O)CSC[C@@H](C(=O)OCC)N(C)C(=O)[C@H](CC(C)C)NC(=O)[C@H](C)N(C)C(=O)[C@H](CC)NC(=O)[C@H](C)N(C)C(=O)[C@H]2CCCN2C1=O [LB01, O=C(N(C)[C@H](C(OCC)=O)CSCC(N[C@H](C1=O)CC(C)C)=O)[C@H](CC(C)C)NC([C@H](C)N(C)C([C@H](CC)NC([C@H](C)N(C)C([C@@H]2N(C([C@H](CCC)NC(CN1CC)=O)=O)CCC2)=O)=O)=O)=O] ({CH2CO}-L[NEtG][Nva][dP][NMeA][Abu][NMeA]L[NMeC]-OEt; thioether N-9)"
61.4,,"CCC[C@@H]1NC(=O)CN(CCC)C(=O)[C@H](CC(C)C)NC(=O)CSC[C@@H](C(=O)OCC)N(C)C(=O)[C@H](CC(C)C)NC(=O)[C@H](C)N(C)C(=O)[C@H](CC)NC(=O)[C@H](C)N(C)C(=O)[C@H]2CCCN2C1=O [LB03, O=C(N(C)[C@H](C(OCC)=O)CSCC(N[C@H](C1=O)CC(C)C)=O)[C@H](CC(C)C)NC([C@H](C)N(C)C([C@H](CC)NC([C@H](C)N(C)C([C@@H]2N(C([C@H](CCC)NC(CN1CCC)=O)=O)CCC2)=O)=O)=O)=O] ({CH2CO}-L[NPrGly][Nva][dP][NMeA][Abu][NMeA]L[NMeC]-OEt; thioether N-9)"
12.6,,"CCOC(=O)[C@@H]1CSCC(=O)N[C@@H](CC(C)C)C(=O)N(CC)CC(=O)N[C@@H](CC(C)C)C(=O)N2CCC[C@@H]2C(=O)N(C)[C@@H](C)C(=O)N[C@@H](CC(C)C)C(=O)N(C)[C@@H](C)C(=O)N[C@@H](CC(C)C)C(=O)N1C [LB06, O=C(N(C)[C@H](C(OCC)=O)CSCC(N[C@H](C1=O)CC(C)C)=O)[C@H](CC(C)C)NC([C@H](C)N(C)C([C@H](CC(C)C)NC([C@H](C)N(C)C([C@@H]2N(C([C@H](CC(C)C)NC(CN1CC)=O)=O)CCC2)=O)=O)=O)=O] ({CH2CO}-L[NEtG]L[dP][NMeA]L[NMeA]L[NMeC]-OEt; thioether N-9)"
8.0,,"CCOC(=O)[C@@H]1CSCC(=O)N[C@@H](CC(C)C)C(=O)N(CC)CC(=O)N[C@@H](CC(C)C)C(=O)N2CCC[C@@H]2C(=O)N(C)[C@@H](C)C(=O)N[C@@H](CC2CCCCC2)C(=O)N(C)[C@@H](C)C(=O)N[C@@H](CC(C)C)C(=O)N1C [LB10, O=C(N(C)[C@H](C(OCC)=O)CSCC(N[C@H](C1=O)CC(C)C)=O)[C@H](CC(C)C)NC([C@H](C)N(C)C([C@H](CC2CCCCC2)NC([C@H](C)N(C)C([C@@H]3N(C([C@H](CC(C)C)NC(CN1CC)=O)=O)CCC3)=O)=O)=O)=O] ({CH2CO}-L[NEtG]L[dP][NMeA][Cha][NMeA]L[NMeC]-OEt; thioether N-9)"
20.3,,"CCC[C@@H]1NC(=O)[C@H](C)N(C)C(=O)[C@H](CC(C)C)NC(=O)CSC[C@@H](C(=O)OCC)N(C)C(=O)[C@H](CC(C)C)NC(=O)[C@H](C)N(C)C(=O)[C@H](CC)NC(=O)[C@H](CCC)N(C)C(=O)[C@H]2CCCN2C1=O [LC03, O=C(N(C)[C@H](C(OCC)=O)CSCC(N[C@H](C(N(C)[C@@H](C)C(N[C@@H](CCC)C(N1[C@H](CCC1)C(N(C)[C@@H](CCC)C(N[C@H]2CC)=O)=O)=O)=O)=O)CC(C)C)=O)[C@H](CC(C)C)NC([C@H](C)N(C)C2=O)=O] ({CH2CO}-L[NMeA][Nva][dP][NMeNva][Abu][NMeA]L[NMeC]-OEt; thioether N-9)"
4.6,,"CCOC(=O)[C@@H]1CSCC(=O)N[C@@H](CC(C)C)C(=O)N(C)[C@@H](C)C(=O)N[C@@H](CC(C)C)C(=O)N2CCC[C@@H]2C(=O)N(C)[C@@H](CC)C(=O)N[C@@H](CC(C)C)C(=O)N(C)[C@@H](C)C(=O)N[C@@H](CC(C)C)C(=O)N1C [LC06, O=C(N(C)[C@H](C(OCC)=O)CSCC(N[C@H](C(N(C)[C@@H](C)C(N[C@@H](CC(C)C)C(N1[C@H](CCC1)C(N(C)[C@@H](CC)C(N[C@H]2CC(C)C)=O)=O)=O)=O)=O)CC(C)C)=O)[C@H](CC(C)C)NC([C@H](C)N(C)C2=O)=O] ({CH2CO}-L[NMeA]L[dP][NMeAbu]L[NMeA]L[NMeC]-OEt; thioether N-9)"
4.6,,"CCC[C@H]1C(=O)N[C@@H](CC(C)C)C(=O)N(C)[C@@H](C)C(=O)N[C@@H](CC(C)C)C(=O)N(C)[C@H](C(=O)OCC)CSCC(=O)N[C@@H](CC(C)C)C(=O)N(C)[C@@H](C)C(=O)N[C@@H](CC(C)C)C(=O)N2CCC[C@@H]2C(=O)N1C [LC08, O=C(N(C)[C@H](C(OCC)=O)CSCC(N[C@H](C(N(C)[C@@H](C)C(N[C@@H](CC(C)C)C(N1[C@H](CCC1)C(N(C)[C@@H](CCC)C(N[C@H]2CC(C)C)=O)=O)=O)=O)=O)CC(C)C)=O)[C@H](CC(C)C)NC([C@H](C)N(C)C2=O)=O] ({CH2CO}-L[NMeA]L[dP][NMeNva]L[NMeA]L[NMeC]-OEt; thioether N-9)"

SMILES,%R_avg [%],Pe_avg [×10⁻⁶ cm/s]
"CCC[C@@H]1NC(=O)[C@H](C)N(C)C(=O)[C@H](CC(C)C)NC(=O)CSC[C@@H](C(=O)OCC)N(C)C(=O)[C@H](CC(C)C)NC(=O)[C@H](C)N(C)C(=O)[C@H](CC)NC(=O)[C@H](CC)N(C)C(=O)[C@H]2CCCN2C1=O [LC01, O=C(N(C)[C@H](C(OCC)=O)CSCC(N[C@H](C(N(C)[C@@H](C)C(N[C@@H](CCC)C(N1[C@H](CCC1)C(N(C)[C@@H](CC)C(N[C@H]2CC)=O)=O)=O)=O)=O)CC(C)C)=O)[C@H](CC(C)C)NC([C@H](C)N(C)C2=O)=O] ({CH2CO}-L[NMeA][Nva][dP][NMeAbu][Abu][NMeA]L[NMeC]-OEt; thioether N-9)",30.1,
"CCC[C@@H]1NC(=O)[C@H](C)N(C)C(=O)[C@H](CC(C)C)NC(=O)CSC[C@@H](C(=O)OCC)N(C)C(=O)[C@H](CC(C)C)NC(=O)[C@H](C)N(C)C(=O)[C@H](CC(C)C)NC(=O)[C@H](CC)N(C)C(=O)[C@H]2CCCN2C1=O [LC05, O=C(N(C)[C@H](C(OCC)=O)CSCC(N[C@H](C(N(C)[C@@H](C)C(N[C@@H](CCC)C(N1[C@H](CCC1)C(N(C)[C@@H](CC)C(N[C@H]2CC(C)C)=O)=O)=O)=O)=O)CC(C)C)=O)[C@H](CC(C)C)NC([C@H](C)N(C)C2=O)=O] ({CH2CO}-L[NMeA][Nva][dP][NMeAbu]L[NMeA]L[NMeC]-OEt; thioether N-9)",7.6,
"CCOC(=O)[C@@H]1CSCC(=O)N[C@@H](CC(C)C)C(=O)N(C)[C@@H](C)C(=O)N[C@@H](CC(C)C)C(=O)N2CCC[C@@H]2C(=O)N(C)[C@@H](CC)C(=O)N[C@@H](CC2CCCCC2)C(=O)N(C)[C@@H](C)C(=O)N[C@@H](CC(C)C)C(=O)N1C [LC10, O=C(N(C)[C@H](C(OCC)=O)CSCC(N[C@H](C(N(C)[C@@H](C)C(N[C@@H](CC(C)C)C(N1[C@H](CCC1)C(N(C)[C@@H](CC)C(N[C@H]2CC3CCCCC3)=O)=O)=O)=O)=O)CC(C)C)=O)[C@H](CC(C)C)NC([C@H](C)N(C)C2=O)=O] ({CH2CO}-L[NMeA]L[dP][NMeAbu][Cha][NMeA]L[NMeC]-OEt; thioether N-9)",10.5,

# Reference: paper PMC10885153, “Membrane Permeability in a Large Macrocyclic Peptide Driven by a Saddle-Shaped Conformation” (Journal of the American Chemical Society, 2024)
